Legend:
FGFR2 = target: T1, FGFR2 (Homo sapiens, UniProt P21802); test: FGFR2 Biochemical Caliper Assay (KinEASE-TK kit); details: 0.07 nM FGFR2; compound incubated with protein 10 min, reaction 45 min at RT; read-out: FGFR2 Cliper IC50
T1 construct: purchased Carna 08-134
Method: Compounds of the present invention were tested in a FGFR1, FGFR2, and FGFR3 Biochemical Caliper Assay.
(§1) Enzyme activity was monitored using KinEASE-TK kit (CisBio, Cat.No. 62TK0PEC) according to manufacturer's instructions. […] Final enzyme concentration was 0.2 nM for FGFR1 and FGFR3, 0.07 nM for FGFR2. Compounds were prepared in 10 mM DMSO and serially diluted into 10 concentrations by 3-fold dilution. Prior to the initiation of the reaction by adding TK-substrate/ATP mixture, the compounds were incubated with protein for 10 min at RT. […] Plates were quenched by adding TK-antibody-Cryptate and Sa-XL665 mixture. After 60 min in the stop solution, read the signal on microplate reader (Molecular Devices, i3x), excitation of 320 nm and emission of 615 nm and 665 nm with a […]. IC50 values were calculated using Prism 7 (GraphPad).

FGFR1 = target: T2, FGFR1 (Homo sapiens, UniProt P11362); test: FGFR1 Biochemical Caliper Assay (KinEASE-TK kit); details: ratio FGFR1/FGFR2 of the biochemical assay
T2 construct: purchased Carna 08-133
Method: as §1, with “Compounds of the present invention were tested in a FGFR1, FGFR2, and FGFR3 Biochemical Caliper Assay. Enzyme” for “Enzyme”

FGFR3 = target: T3, FGFR3 (Homo sapiens, UniProt P22607); test: FGFR3 Biochemical Caliper Assay (KinEASE-TK kit); details: ratio FGFR3/FGFR2 of the biochemical assay
T3 construct: purchased Carna 08-135
Method: as §1, with “Compounds of the present invention were tested in a FGFR1, FGFR2, and FGFR3 Biochemical Caliper Assay. Enzyme” for “Enzyme”

SNU16 cells = test: SNU16 Cancer Cell Line Proliferation Assay (CellTiter-Glo); assay type: cell-based; details: Homo sapiens, SNU-16, 72 h
Method: Compounds of the present invention were also tested in a SNU16 Cancer Cell Line Proliferation Assay.
SNU16 cells were plated in 96-well clear bottom/white plate(Costar, Cat.No. 3610) at 5000 cells/well in 100 μl medium. Test compounds were prepared in a 10 mM DMSO stock solution and serially diluted into 9 concentrations by 3-fold dilution. 0.5 μl of each concentration of compound was added into the cell culture plates and DMSO as a control. The plates were incubated for 72 h at 37° C. and 5% CO2 incubator. 50 μl CellTiter-Glo reagent (Promega, G7572) was added into each well and then the plates were shaken gently for 10 min at room temperature. Luminescence was read on microplate reader (Molecular Devices, i3x), IC50 values were calculated using Prism 7 (GraphPad).

T1 sequence (P21802 22-821): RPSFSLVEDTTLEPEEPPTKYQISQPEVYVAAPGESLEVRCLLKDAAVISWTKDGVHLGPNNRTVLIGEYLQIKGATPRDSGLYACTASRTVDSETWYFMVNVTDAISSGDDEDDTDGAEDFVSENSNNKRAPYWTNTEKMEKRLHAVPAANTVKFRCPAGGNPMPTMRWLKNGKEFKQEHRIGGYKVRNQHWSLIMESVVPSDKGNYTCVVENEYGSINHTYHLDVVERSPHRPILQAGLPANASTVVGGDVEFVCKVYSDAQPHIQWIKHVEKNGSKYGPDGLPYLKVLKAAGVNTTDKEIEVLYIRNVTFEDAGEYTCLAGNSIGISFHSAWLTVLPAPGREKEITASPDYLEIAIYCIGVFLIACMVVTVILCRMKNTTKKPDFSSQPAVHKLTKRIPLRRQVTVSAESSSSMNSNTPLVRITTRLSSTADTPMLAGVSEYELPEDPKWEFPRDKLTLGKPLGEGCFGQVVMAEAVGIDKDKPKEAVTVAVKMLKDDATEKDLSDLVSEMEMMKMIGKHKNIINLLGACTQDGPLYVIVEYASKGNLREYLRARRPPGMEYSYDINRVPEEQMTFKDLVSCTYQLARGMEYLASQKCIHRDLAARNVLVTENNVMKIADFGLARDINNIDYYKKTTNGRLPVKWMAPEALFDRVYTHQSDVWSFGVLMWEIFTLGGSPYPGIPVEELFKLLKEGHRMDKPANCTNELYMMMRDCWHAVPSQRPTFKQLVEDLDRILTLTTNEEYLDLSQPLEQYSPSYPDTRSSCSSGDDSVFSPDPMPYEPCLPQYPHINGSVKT
T3 sequence (P22607 23-806): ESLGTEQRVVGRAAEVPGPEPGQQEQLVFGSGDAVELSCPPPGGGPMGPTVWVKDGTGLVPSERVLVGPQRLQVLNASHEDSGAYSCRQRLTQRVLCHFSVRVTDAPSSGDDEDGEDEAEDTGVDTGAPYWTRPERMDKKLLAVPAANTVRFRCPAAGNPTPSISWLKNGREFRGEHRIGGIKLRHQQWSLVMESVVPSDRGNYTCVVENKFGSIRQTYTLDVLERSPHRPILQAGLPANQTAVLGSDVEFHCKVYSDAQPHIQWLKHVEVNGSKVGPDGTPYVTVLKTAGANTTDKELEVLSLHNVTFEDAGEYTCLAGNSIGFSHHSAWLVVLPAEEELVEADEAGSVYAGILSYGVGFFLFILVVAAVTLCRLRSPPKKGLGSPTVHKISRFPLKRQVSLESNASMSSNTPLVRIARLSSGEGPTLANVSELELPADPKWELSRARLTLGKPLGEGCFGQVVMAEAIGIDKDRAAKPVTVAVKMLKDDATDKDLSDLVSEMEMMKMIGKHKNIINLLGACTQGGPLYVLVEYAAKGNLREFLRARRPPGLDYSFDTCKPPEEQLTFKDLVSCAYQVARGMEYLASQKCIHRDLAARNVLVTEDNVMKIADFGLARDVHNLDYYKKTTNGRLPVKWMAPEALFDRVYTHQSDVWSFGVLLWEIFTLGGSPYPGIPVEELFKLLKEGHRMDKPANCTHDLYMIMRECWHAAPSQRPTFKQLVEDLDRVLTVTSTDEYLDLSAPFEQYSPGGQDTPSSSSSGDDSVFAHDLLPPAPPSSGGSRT
T2 sequence (P11362 22-822): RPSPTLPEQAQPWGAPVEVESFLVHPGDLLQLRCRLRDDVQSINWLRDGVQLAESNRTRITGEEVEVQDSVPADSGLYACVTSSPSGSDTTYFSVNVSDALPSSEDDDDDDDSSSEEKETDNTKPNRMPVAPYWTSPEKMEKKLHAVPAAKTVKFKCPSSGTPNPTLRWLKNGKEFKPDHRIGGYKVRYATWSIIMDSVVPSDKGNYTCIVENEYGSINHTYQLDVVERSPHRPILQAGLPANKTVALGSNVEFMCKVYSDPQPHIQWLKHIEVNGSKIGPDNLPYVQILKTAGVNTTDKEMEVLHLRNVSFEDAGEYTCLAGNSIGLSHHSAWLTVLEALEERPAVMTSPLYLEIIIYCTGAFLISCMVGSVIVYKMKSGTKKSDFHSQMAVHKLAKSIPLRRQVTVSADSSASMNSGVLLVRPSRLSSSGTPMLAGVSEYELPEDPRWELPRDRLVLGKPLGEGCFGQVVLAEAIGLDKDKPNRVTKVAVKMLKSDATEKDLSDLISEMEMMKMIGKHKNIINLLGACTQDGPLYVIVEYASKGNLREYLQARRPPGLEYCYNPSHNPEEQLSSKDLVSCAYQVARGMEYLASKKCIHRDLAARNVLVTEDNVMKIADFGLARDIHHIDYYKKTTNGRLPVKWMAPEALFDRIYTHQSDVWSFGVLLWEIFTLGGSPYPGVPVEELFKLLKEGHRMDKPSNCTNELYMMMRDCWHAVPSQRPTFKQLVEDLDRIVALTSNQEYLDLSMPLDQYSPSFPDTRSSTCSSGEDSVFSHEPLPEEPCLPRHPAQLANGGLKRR

SMILES | IC50 (FGFR2) | Selectivity FGFR1/FGFR2 (FGFR1) | Selectivity FGFR3/FGFR2 (FGFR3) | IC50 (SNU16 cells)
C=C(F)C(=O)Nc1ccc(-c2nn3ncnc(N)c3c2-c2ccc(Oc3cccc(C)n3)c(F)c2)c(F)c1 [Compound 438, N-(4-(4-amino-5-(3-fluoro-4-((6-methylpyridin-2-yl)oxy)phenyl)pyrazolo [5,1-f][1,2,4]triazin-6-yl)-3-fluorophenyl)-2-fluoroacrylamide] | < 5 nM | A+ (Selectivity of FGFR1/FGFR2 greater or equal to 500) | A+ (Selectivity of FGFR3/FGFR2 greater or equal to 150) | ≤ 10 nM
C=CC(=O)Nc1ccc(-c2nn3ncnc(N)c3c2-c2ccc(Oc3nccc(CC)n3)c(F)c2)cc1 [Compound 400, N-(4-(4-amino-5-(4-((4-ethylpyrimidin-2-yl)oxy)-3-fluorophenyl)pyrazolo[5,1-f][1,2,4]triazin-6-yl)phenyl)acrylamide] | < 5 nM | A+ (Selectivity of FGFR1/FGFR2 greater or equal to 500) | A+ (Selectivity of FGFR3/FGFR2 greater or equal to 150) | ≤ 10 nM
C=CC(=O)Nc1ccc(-c2nn3ncnc(N)c3c2-c2ccc(C(=O)NC3(C#N)CC3)c(OC)c2)cc1 [Compound 268, 4-(6-(4-acrylamidophenyl)-4-aminopyrazolo[5,1-f][1,2,4]triazin-5-yl)-N-(1-cyanocyclopropyl)-2-methoxybenzamide] | 5 to 10 nM | C (Selectivity of FGFR1/FGFR2 less than 200 but greater than or equal to 100) | A+ (Selectivity of FGFR3/FGFR2 greater or equal to 150) | 
C=C(F)C(=O)Nc1ccc(-c2nn3ncnc(N)c3c2-c2ccc(C(=O)NCC(C)(F)F)c(OC)c2)cc1 [Compound 362, 4-(4-amino-6-(4-(2-fluoroacrylamido)phe-nyl)pyrazolo[5,1-f][1,2,4]triazin-5-yl)-N-(2,2-difluoropropyl)-2-methoxybenzamide] | > 10 nM | A+ (Selectivity of FGFR1/FGFR2 greater or equal to 500) | A (Selectivity of FGFR3/FGFR2 less than 150 but greater than or equal to 100) | 
C=CC(=O)Nc1ccc(-c2nn3ncnc(N)c3c2-c2ccc(Oc3ncc(C)cn3)c(F)c2)cc1 [Compound 376, N-(4-(4-amino-5-(3-fluoro-4-((5-methylpyrimidin-2-yl)oxy)phenyl)pyrazolo [5,1-f][1,2,4]triazin-6-yl)phenyl)acrylamide] | > 10 nM | A+ (Selectivity of FGFR1/FGFR2 greater or equal to 500) | A+ (Selectivity of FGFR3/FGFR2 greater or equal to 150) | 
C=CC(=O)Nc1ccc(-c2c(-c3ccc(C(=O)NC4CC4)c(OC)c3)c3c(N)ncc(C#N)c3n2C2CC2)cc1 [Compound 359, 4-(2-(4-acrylamidophenyl)-4-amino-7-cyano-1-cyclopropyl-1H-pyrrolo[3,2-c]pyridin-3-yl)-N-cyclopropyl-2-methoxybenzamide] | > 10 nM | A+ (Selectivity of FGFR1/FGFR2 greater or equal to 500) | B (Selectivity of FGFR3/FGFR2 less than 100 but greater than or equal to 25) | 
C=C(F)C(=O)Nc1ccc(-c2[nH]c3c(C#N)cnc(N)c3c2-c2ccc(C(=O)NC3CC3(F)F)c(OC)c2)cc1 (centres unmarked) [Compound 320, 4-(4-amino-7-cyano-2-(4-(2-fluoroacrylamido)phe-nyl)-1H-pyrrolo[3,2-c]pyridin-3-yl)-N-(2,2-difluorocyclopropyl)-2-methoxybenzamide] | < 5 nM | C (Selectivity of FGFR1/FGFR2 less than 200 but greater than or equal to 100) | A (Selectivity of FGFR3/FGFR2 less than 150 but greater than or equal to 100) | 

Reference: patent publication US20240383905A1, “FGFR INHIBITORS AND METHODS OF USE THEREOF” (3H PHARMACEUTICALS CO., LTD., priority 2021, published 2024)
